Measured values: patent US20210230213A1, “ARAMCHOL SALTS” (GALMED RESEARCH AND DEVELOPMENT LTD., priority 2013, published 2021)
Where “and” joins values, the source holds several entries; their conditions need not be identical. Equal values may be shown once.

Experiments:
Bulk and tapped density = type: physicochemical
Text: Measurements of tapped and bulk densities are used to predict the flow properties and compressibility of powders. These two properties are important for manufacture of solid dosage formulations, such as tablets and capsules. Compounds with low values of tapped and bulk densities may be subject to difficulties in tablet compression, and therefore may require additional processing for improving flow properties. […] Therefore, to improve flow properties a wet granulation process is used prior to tablet compression.

[1] = Pharmacokinetics of capsules in dogs, single dose and BID (Example 8); settings: dogs
Protocol: Capsules containing 100 mg of Aramchol were dosed to dogs as either the free acid or the meglumine salt.
The complete data-set across all animals and time-points for each dose form (free acid or meglumine salt) were fit to single compartment PK models with first order rate of absorption Ka (h−1) and elimination parameterised by CL and V (rate of elimination=CL/V, h−1). For the meglumine salt group, the first dose data for M5 was removed.
Capsules containing 100 mg of Aramchol were dosed to dogs as either the free acid or the meglumine salt BID. […] A clinical study that investigated the plasma concentration of Aramchol after oral dosing of 300 mg BID at steady state was conducted in 16 healthy volunteers.

[2] = water
[3] = Twice daily administration for 10 days of Aramchol and Aramchol meglumine in humans (Example 9); type: in vivo; settings: free acid 300 mg, meglumine salt 383 mg
Protocol: 300 mg aramchol free acid were administered to human subjects twice daily, and 383 mg aramchol meglumine salt were administered to human subjects twice daily, as detailed in FIG. 13.

[4] = Dynamic Vapour Sorption (DVS); type: physicochemical
Protocol: The samples was weighed in a glass pan, typically 20-30 mg, and equilibrated at 0% relative humidity (RH). After the material had dried, the RH was increased with 10% per step for 1 hour per increment, ending at […].
The software used for data collection was DVSWin v3.01 No Video. Data analysis was performed using DVS Standard Analysis Suite v6.3.0 (Standard).
After completion of sorption cycle, the material was dried. XRPD was performed before and after DVS.

[5] = Accelerated stability of Aramchol N-methylglucamine at 40° C./75% RH (Example 5); type: physicochemical; settings: for assay: calculated against free acid reference
Protocol: The following parameters were determined at t=0, t=1 week, t=2 weeks: appearance, LC-purity, LC-assay (the assay is calculated against the reference which is the free acid and therefore, the results are less than 100%), water content. The appearance and purity remained unchanged under the investigated conditions. […] The calculated assay remained relatively unchanged under the investigational conditions. Water content increased under the investigational conditions and the material seemed hygroscopic. The attraction of water in the solid state form was more prominent for material stored in an open container.

[6] = Mathematical extrapolation of dog data to humans for meglumine salt
[7] = Fill weight of size 00 HPMC capsule; type: physicochemical; settings: hard HPMC capsule size 00, filled as is without tapping
Text: Aramchol (free acid), and the three salts were filled as are, into hard HPMC (Hypromellose; Capsule size 00 (CapsCanada, ON, Canada) without taping, fill weight is presented in table 9.

[8] = capsule, Day 1, individual animals, listed as Aramchol meglumine salt
[9] = capsule, Day 1 single dose, Mean
[10] = capsule, Day 11, individual animals, listed as Aramchol meglumine salt
[11] = capsule, Day 11 final dose after BID dosing, Mean
[12] = humans, prediction using % CV 24.3

For “3β-arachidylamido-7α,12α-dihydroxy-5β-cholan-24-oic acid N-methylglucamine salt”, the Bulk density (Bulk and tapped density) was 0.57 g/mL, the Tapped density (Bulk and tapped density) was 0.66 g/mL and the “higher plasma exposure than free acid at the same molar dose” value [1] was 26%. The AUCss ([1]; 100 mg BID capsules, AUC 0-72 h from last administration on day 11, N = 3) was 1,143,428 ng*h/mL, the Cmax ([1]; capsule 100 mg Aramchol, Day 1 single dose, Mean) was 4880 ng/mL and the Cmax ([1]; capsule, Day 1, individual animals (1M-3M free acid, 4M-6M meglumine salt), listed as Aramchol meglumine salt) was 5770 ng/mL and 1720 ng/mL and 7160 ng/mL. The AUC0-12 [1, 8] was 34.8 µg·h/mL and 3.8 µg·h/mL and 53.2 µg·h/mL, the AUCinf [1, 8] was 205 µg·h/mL and 66.9 µg·h/mL and 440 µg·h/mL and the Half-life [1, 8] was 19.2 h and 23.1 h and 26.1 h. For the same substance, the Tmax [1, 8] was 12 h and 24 h, the AUC0-12 [1, 9] was 30.6 µg·h/mL and the AUCinf [1, 9] was 237 µg·h/mL. For the same substance, the Half-life [1, 9] was 22.8 h, the Tmax [1, 9] was 20 h and the AUC0-12 [1, 10] was 365 µg·h/mL and 302 µg·h/mL and 315 µg·h/mL. For the same substance, the AUCinf [1, 10] was 1600 µg·h/mL and 1150 µg·h/mL and 1590 µg·h/mL, the Cmax [1, 10] was 37600 ng/mL and 38800 ng/mL and 28300 ng/mL and the Half-life [1, 10] was 29.6 h and 28.9 h and 35.3 h. The Tmax [1, 10] was 8 h and 4 h, the AUC0-12 [1, 11] was 328 µg·h/mL and the AUCinf [1, 11] was 1450 µg·h/mL. For the same substance, the Cmax [1, 11] was 34900 ng/mL, the Half-life [1, 11] was 31.3 h and the Tmax [1, 11] was 6.67 h. The “greater exposure using the salt (from model Cl)” value ([1]; compartmental modelling) was 28%, the “AUCinf from day 11 onwards” value ([1]; final dose day 11) was 1450 µg·h/mL and the “AUC0-12 D11” value ([1]; final dose day 11, steady state) was 328 µg·h/mL. The “AUCinf D1” value ([1]; first dose day 1, all animals) was 237 µg·h/mL, the “AUCinf D1” value ([1]; first dose day 1, animal 5M (M5) excluded) was 323 µg·h/mL and the Cl ([1]; single compartment PK model) was 320. For the same substance, the “AUCinf higher than the free acid” value ([1]; single dose day 1, animal 5M excluded) was 34%, the “Dissolved (50 in g in 1) at 50° C.” value ([2]; Aramchol free acid and base 1:1, 50° C.) was “Yes” and the “salt remains in solution after cooling to 20° C.” value ([2]; cooled to 20° C.) was “no”. For the same substance, the “AUCss 0-12 h” value ([3]; BID for 10 days) was 109 µg·h/mL, the Cavg ([3]; BID for 10 days, listed as 3β-arachidylamido-7α,12α-dihydroxy-5β-cholan-24-oic acid-meglumine salt) was 8,318 ng/ml and the Cavg ([3]; BID for 10 days, listed as Aramchol Meglumine) was 8318 ng/mL. For the same substance, the Cavg ([3]; BID for 10 days, listed as aramchol meglumine salt) was 8318 ng/mL, the AUCss ([3]; BID) was 109,000 ng*h/mL and the “total mass uptake (DVS)” value ([4]; Example 4 material, sorption to 95% RH, […]) was 16%. The “Mass uptake (DVS)” value ([4]; RH raised from 0% in 10% steps to 95% RH, stepwise, reversible) was 14.9% (stepwise; reversible), the purity ([5]; 40° C./75% RH, as a solution in a closed flask, T = 0) was 99.5% and the purity ([5]; 40° C./75% RH, as a solution in a closed flask, T = 1 (week)) was 99.5%. The purity ([5]; 40° C./75% RH, as a solution in a closed flask, T = 2 (weeks)) was 99.5%, the water ([5]; 40° C./75% RH, solid in a closed container, T = 0) was 1.2% and the water ([5]; 40° C./75% RH, solid in a closed container, T = 1 (week)) was 1.6%. The water ([5]; 40° C./75% RH, solid in a closed container, T = 2 (weeks)) was 2.0%, the water ([5]; 40° C./75% RH, solid in an open container, T = 0) was 1.2% and the water ([5]; 40° C./75% RH, solid in an open container, T = 1 (week)) was 4.3%. For the same substance, the water ([5]; 40° C./75% RH, solid in an open container, T = 2 (weeks)) was 5.7%, the purity ([5]; 40° C./75% RH, solid state form in a closed container, T = 0) was 99.5% and the purity ([5]; 40° C./75% RH, solid state form in a closed container, T = 1 (week)) was 99.4%. The purity ([5]; 40° C./75% RH, solid state form in a closed container, T = 2 (weeks)) was 99.5%, the purity ([5]; 40° C./75% RH, solid state form in an open container, T = 0) was 99.5% and the purity ([5]; 40° C./75% RH, solid state form in an open container, T = 1 (week)) was 99.5%. For the same substance, the purity ([5]; 40° C./75% RH, solid state form in an open container, T = 2 (weeks)) was 99.5%, the “purity on exposure to 40° C./75% RH” value ([5]; 40° C./75% RH, up to 2 weeks) was “no change to purity values” and the assay ([5]; solid in a closed container, T = 0) was 74.7%. For the same substance, the assay ([5]; solid in a closed container, T = 1 (week)) was 72.8%, the assay ([5]; solid in a closed container, T = 2 (weeks)) was 74.4% and the assay ([5]; solid in an open container, T = 0) was 74.7%. For the same substance, the assay ([5]; solid in an open container, T = 1 (week)) was 76.7%, the assay ([5]; solid in an open container, T = 2 (weeks)) was 71.9% and the assay ([5]; solution in a closed flask, T = 0) was 74.7%. The assay ([5]; solution in a closed flask, T = 1 (week)) was 75.3%, the assay ([5]; solution in a closed flask, T = 2 (weeks)) was 74.8% and the AUCss [6] was 144,295 ng*h/mL. The AUCss ([6]; embodiment, b22 and b98 say the value pertains to dogs) was 144,295 ng*h/mL, the maximum plasma exposure [6, 12] was 179.382 µg·h/mL and the minimum plasma exposure [6, 12] was 109.208 µg·h/mL. For the same substance, the “fill weight of one 00 size capsule” value [7] was 0.30 gram.
